Reference: patent US9011882B2, “Dimethylarginine dimethylaminohydrolase inhibitors and methods of use thereof” (The Board of Trustees of the Leland Stanford Junior …, priority 2012, dated 2015)

Tests used:
[1] = tested on: Lung fibroblasts from patients with IPF; experiment: Sircol collagen assay, TGF-β stimulated IPF lung fibroblasts; type: cell-based, human; conditions: Omeprazole 50 or 100 μM; L-257 50 μM; A83-01 20 μM; 24 hours
Method: Cells were seeded at 4×10^4 cells/well in a 6-well plate (1.2 mL media per well) and incubated overnight at 37° C./5% CO2. The next day, the conditioned media was aspirated and the cells were rinsed with phosphate-buffered saline (PBS) prior to (fetal bovine) serum starving them for 2 hours followed by 22 hours low serum (0.1% fetal bovine serum; FBS) in order to synchronize them.
On day-3, the cells were stimulated with fully-supplemented media (containing 10% FBS) in the absence or presence of recombinant transforming growth factor-1 (TGF-β1) (at 10 ng/mL final conc) in the presence of a DDAH inhibitor (DDAHi; the proton pump inhibitor (PPI) lansoprazole at a final concentration of 20 μM) or vehicle for 24 hours.
The acid-soluble collagen content in each well was determined in the conditioned media using the Sircol collagen assay (Accurate Chemical and Scientific Corp; CLRS 1000) following the recommended protocol.
The amount of collagen in each well was estimated from a standard curve and the collagen content in each sample was normalized to total cellular protein from the respective well and was expressed as μg collagen per milligram of protein.
Lung fibroblasts were isolated from patients diagnosed with IPF according to International Standards. Isolated fibroblasts were seeded at 6×10^4 and synchronized the following day.
The acid-soluble collagen content was determined using the Sircol collagen assay (Accurate Chemical and Scientific Corp; CLRS 1000) following the recommended protocol.

[2] = tested on: mouse alveolar epithelial cell; experiment: BrdU Cell Proliferation Assay, mouse alveolar epithelial cells; type: cell-based; conditions: mouse cell line, FIG. 25
Source text: A “vehicle only” sample served as a “no DDAH” control.

[3] = tested on: human microvascular endothelial cells (HMEC-1); experiment: Intracellular ADMA by ELISA in endothelial cells; type: cell-based; conditions: 20 μM, 24 hours, compared to vehicle control
Method: (§1) First, human microvascular endothelial cells (HMEC-1; ATCC) were seeded in 75 cm^2 cell culture flasks and cultured in fully supplemented DMEM (Invitrogen cat #11995; supplemented with 10% fetal bovine serum (FBS), 4 mM HEPES; GIBCO 15630 and penicillin/streptomycin). The cells were incubated at 37° C./5% CO2 until ˜60% confluency. The cells were then washed with phosphate buffered saline (PBS) and plain DMEM (DMEM with no addition of serum or the other supplements) was mixed with esomeprazole (20 μM final concentration from 100 mM stock) and added to the cells. […] After ˜4 hrs of incubation, the media was aspirated from each flask and the cells were cultured in fully supplemented DMEM as described above and incubated at 37° C./5% CO2 for another 20 hrs. The serum was initially withdrawn due to the possibility that esomeprazole would interact with Cys containing serum proteins and fail to internalize at effective concentrations.
After 24 hrs, the cells were harvested. Total cellular protein was estimated as described and ADMA was measured by enzyme-linked immunosorbent assay (ELISA) following the manufacturer's recommendations; DLD Diagnostika, Hamburg, Germany).
as §1, with “FBS,” for “fetal bovine serum (FBS),”, “PBS” for “phosphate buffered saline (PBS)”, “PD 404” for “esomeprazole”, “conc” for “concentration”, “The serum was initially withdrawn due to the possibility that esomeprazole would interact with Cys containing serum proteins and fail to internalize at effective concentrations.” left out
After 24 hours, the cells were harvested. Total cellular protein was estimated as described and ADMA was measured by ELISA following the manufacturer's recommendations; DLD Diagnostika, Hamburg, Germany).

[4] = tested on: Human lung epithelial cell line (A-549); experiment: BrdU Cell Proliferation Assay, human alveolar epithelial cells; type: cell-based; conditions: FIG. 24
Method: Cells were seeded at 5×10^3 cells/well in a 96-well plate (200 μL media per well) & incubated overnight at 37° C./5% CO2. The next day, the conditioned media was aspirated and the cells were PBS-rinsed prior to (fetal bovine) serum starving them for 2 hours followed by 22 hours low serum (0.1% FBS) in order to synchronize them.
On day-3, 2 hours before the end of the 24 hours low serum period, DDAH inhibitors (Proton pump inhibitors; PPIs) were added in a 100 μL solution of 0.1% FBS DMEM. The following DDAH inhibitors were used: Lansoprazole; Esomeprazole; and Rabeprazole. A “vehicle only” sample served as a “no DDAH” control. In addition, Media only (blank control) without cells, and Cells only (background control) were included in the assay. Two hours later, 100 μL of DMEM containing 10% FBS was added to each well in order to serum-stimulate (for 24 hours) the cells and make the total well content to 200 μL. Four hours prior to the end of the 24 hrs, 20 μL of 1:500 diluted Bromodeoxyuridine (BrdU) (diluted in fully-supplemented DMEM) was added to all wells except the “Cells only” control wells.
The incorporation of BrdU into newly synthesized DNA by actively proliferating cells was detected immunochemically using an Antibody directed against BrdU using the recommended protocol and the BrdU Cell Proliferation Assay kit (Millipore; Cat #2750). […]

human DDAH1 [5] = biological target: T1, human DDAH1 (Homo sapiens (Human), UniProt O94760); experiment: Fluorimetric CPM assay of DDAH activity (SMTC substrate); type: biochemical; conditions: for inhibition of DDAH activity, CPM fluorometric validation: fresh powders from vendors, vs vehicle
Method: (§2) The activity of human DDAH1 was quantified using fluorimetric assay by incubating the enzyme with an artificial substrate S-methyl-thiocitrulline (SMTC). DDAH metabolizes SMTC into L-citrulline and methanethiol (CH3—SH). The thiol released from the reaction can be monitored fluorimetrically by adding 7-Diethylamino-3-(4-maleimidophenyl)-4-methylcoumarin (CPM).
as §2, with “(SMTC), as described in Example 1.” for “(SMTC).”
For the secondary assay, a fluorimetric assay that uses SMTC as a substrate was adapted. DDAH metabolizes SMTC into L-citrulline and methanethiol (CH3—SH). In brief, DDAH (30 nM final concentration) was mixed with SMTC (100 μM final concentration), CPM (50 μM final concentration) and screening buffer (containing a final concentration of 0.01% Triton-X100 and 1 mM EDTA). The reaction mix was added to black 384-well plates to validate primary hits that modulate DDAH activity. The release of CH3—SH was monitored fluorimetrically by adding 7-Diethylamino-3-(4-maleimidophenyl)-4-methylcoumarin (CPM) as described in Linsky (Linsky, T. & Fast, W. A continuous, fluorescent, high-throughput assay for human dimethylarginine dimethylaminohydrolase-1. J Biomol Screen 16, 1089-1097 (2011)).

[6] = tested on: human alveolar epithelial cells (A-549)
Source text: (§3) Cytotoxicity of PPIs. […] Mean+/−SEM from Duplicate Experiments. * p<0.05.

[7] = tested on: mouse alveolar epithelial (MLE-12) cells
Source text: as §3

[8] = tested on: human alveolar epithelial cells (A-549); experiment: Apoptosis, Cell Death Detection ELISA, A23187-induced; type: cell-based; conditions: 1 μM A23187, 24 hours
Method: Apoptosis as measured by mono- and oligo-nucleosome enrichment was determined using Cell Death Detection ELISA^PLUS (Roche). Histone-DNA complex (His-DNA CPx) was included as a control. […] Data shown are Mean+/-SEM from Duplicate Experiments. * p<0.05.

[9] = tested on: human alveolar epithelial cells (A-549); experiment: Nitric oxide production, total nitrite (NOx) by Griess reaction; type: cell-based; conditions: 24 hours
Method: Total nitrite (NOx) was measured using Griess reaction. Data are Mean±SEM from duplicate experiments. *p<0.05.

DDAH = DDAH (Homo sapiens (Human), UniProt O94760); experiment: Dilution assay for reversibility of DDAH inhibition (fluorometric); type: biochemical
Method: In order to understand the mechanism by which PPIs inhibit DDAH activity and to determine whether the inhibition mechanism is reversible, a dilution study was conducted, in which DDAH (at a 100-fold excess to the final concentration used) was pre-incubated with excess PPI (100×, 10× or 1× the IC50 value) and then inhibition of enzymatic activity was determined using a fluorometric assay as described above. For a reversible inhibitor that binds to a single site of an enzyme (1:1 stoichiometry), it is anticipated that inhibition can be saturated.

[10] = tested on: human lung epithelial cells (A-549); experiment: Intracellular ADMA by ELISA in lung epithelial cells; type: cell-based; conditions: Omeprazole at 10, 20, 50 or 100 μM, 24 hours
Method: After 24 hours, ADMA was measured by enzyme-linked immunosorbent assay (ELISA). […] Data are Mean±SEM from duplicate experiments. *p<0.05 compared to vehicle (“Veh”).

human DDAH1 [11] = biological target: T1, human DDAH1; experiment: Time-dependence kinetics study of DDAH inhibition; type: biochemical

T1 sequence (O94760 whole entry): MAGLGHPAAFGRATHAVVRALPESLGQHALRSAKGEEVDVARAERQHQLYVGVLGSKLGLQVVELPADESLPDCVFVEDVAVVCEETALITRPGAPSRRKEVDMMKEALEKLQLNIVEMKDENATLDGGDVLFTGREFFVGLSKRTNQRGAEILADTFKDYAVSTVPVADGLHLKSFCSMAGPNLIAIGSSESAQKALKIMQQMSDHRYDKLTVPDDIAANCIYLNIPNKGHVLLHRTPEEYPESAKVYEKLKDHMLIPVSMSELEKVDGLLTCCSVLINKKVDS
Chain of DDAH (O94760 whole entry): as above

SMILES	TGF-β induced collagen synthesis [1]	incorporation of BrdU [2]	incorporation of BrdU [4]	inhibition of DDAH activity, CPM fluorometric validation (human DDAH1 [5])	mode of inhibition in time-dependence kinetics (human DDAH1 [11])	also measured
Cc1cccc(-c2nn(C(=S)Nc3ccccc3)cc2-c2ccnc3ccccc23)n1 [A83-01]	reduced TGF-β induced collagen synthesis	–	–	–	–	–
COCCNC(N)=NCCC[C@H](N)C(=O)O [L-257]	reduced TGF-β induced collagen synthesis	reduced incorporation of BrdU	reduced incorporation of BrdU	–	–	increase in intracellular ADMA [3]: 68%
COc1ccc2[nH]c([S+]([O-])Cc3ncc(C)c(OC)c3C)nc2c1 (centres unmarked) [Omeprazole]	reduced TGF-β induced collagen synthesis	reduced incorporation of BrdU	reduced incorporation of BrdU	inhibited DDAH activity significantly	–	concentration up to which not cytotoxic (LDH release) [6]: ≥ 300 µM; concentration up to which cytotoxicity not observed (LDH release) [7]: ≥ 300 µM; level of apoptosis (mono- and oligo-nucleosome enrichment) [8]: reduced the level of apoptosis; levels of nitric oxide (total nitrite, NOx) [9]: reduced the levels of nitric oxide; reversibility of DDAH inhibition upon dilution (DDAH; pre-incubation with 100×, 10× or 1× the IC50 value): reversible inhibition of DDAH; IC50 (DDAH; value given in FIG. 20 legend): ~60 µM; intracellular ADMA [10]: increase in intracellular ADMA
O=C(O)c1cc[c]([Hg][Cl])cc1 [chloromercuribenzoate, 4-chloromercuribenzoic acid, reference compound]	–	–	–	confirmed known DDAH inhibitors	progressive inhibition	–
CC(=O)[O-].[Hg+][c]1ccccc1 [phenylmercuric acetate]	–	–	–	–	progressive inhibition	IC50 (human DDAH1 [5]): < 780 nM
